Measurements from patent US9340577B2, “HLA binding motifs and peptides and their uses” (priority 1992, dated 2016).
No end group written: not given here.

How the values were obtained:
Test in all cases: biochemical
Format in all cases: binding
HLA-A3.2 (A*0301) = HLA-A3.2 (A*0301) (Homo sapiens, UniProt P04439)
HLA-A11 (A*1101) = HLA-A11 (A*1101) (Homo sapiens, UniProt P04439, A114D/D185E/E176A/F33Y/L180Q/S129P/T187R)
A31 (A*3101) = A31 (A*3101) (Homo sapiens, UniProt P04439, A270S/D185E/E176V/E277Q/F33T/G231S/G80R/H175R/I121M/I218V/I322F/K168Q/L300P/L318F/M331R/P217A/Q94H/R138Q/T323A/T345S/T97I/V358M)
A*3301 = A*3301 (Homo sapiens, UniProt P04439, A270S/D185E/E176V/E277Q/E87N/F33T/G231S/H175R/I121M/I218V/I322F/K168Q/K210R/L300P/L318F/M331R/P217A/Q86R/Q94H/R138Q/T323A/T345S/T97I/V358M/Y195H)
A*6801 = A*6801 (Homo sapiens, UniProt P04439, A269V/D185E/E176V/E277Q/E87N/F33Y/G231S/I121M/I166T/I218V/L180W/L300P/L318F/N151K/P208A/P217A/Q86R/R169H/T345S)

Row | Molecule | IC50 (HLA-A3.2 (A*0301)) [µM] | IC50 (HLA-A11 (A*1101)) [µM] | IC50 (A31 (A*3101)) [µM] | IC50 (A*3301) [µM] | IC50 (A*6801) [µM]
1 | WTIAYIEYR [Peptide 9017.0116] | 11.3 | 0.031 | 0.097 | 0.014 | 0.0086
2 | SFFSRTWCR [Peptide 1587.42] | 2.38 | 0.155 | 0.0022 | 0.0035 | 0.028
3 | TVHVYFDGNK [Peptide 1589.24] | 0.707 | 0.061 | > 20 | > 20 | 0.097
4 | VTVKIGGELK [Peptide 1516.03] | 4.11 | 0.039 | > 20 | > 20 | 0.033
5 | KTDEGGDWK [Peptide 88.0380] | 3.63 | 0.407 | > 20 | 13.1 | 9.89
6 | KSFFSRTWCK [Peptide 88.0170] | 0.0079 | 0.012 | 0.0054 | 0.022 | 0.219
7 | RQMNMSQWIK [Peptide 1587.54] | 0.018 | 0.0075 | 0.041 | > 20 | 3.11
8 | CSCC[C@H](NC(=O)[C@@H](N)CCCCN)C(=O)N[C@@H](Cc1ccccc1)C(=O)N[C@@H](CS)C(=O)N[C@@H](CCC(N)=O)C(=O)N[C@@H](CC(C)C)C(=O)N[C@@H](C)C(=O)N[C@@H](CCCCN)C(=O)O [Peptide 1556.52] | 0.037 | 0.022 | 0.41 | > 20 | 1.28
9 | EFTAFLGAFK [Peptide 88.0167] | 4.67 | 0.293 | > 20 | 0.035 | 0.197
10 | WTIAYIEYRK [Peptide 9017.0244] | 4.65 | 0.062 | 0.885 | 0.493 | 0.0012
11 | RLECVLMYK [Peptide 1589.12] | 0.0087 | 0.021 | 0.044 | 0.828 | 3.63
12 | KSCFAMSLIK [Peptide 88.0190] | 0.057 | 0.017 | 0.311 | > 20 | 12.2
13 | AVNKMFCQLAK [Peptide 1556.46] | 0.055 | 0.01 | 0.284 | > 20 | 1.31
14 | GTAKSVTCTR [Peptide 1556.31] | 0.96 | 0.098 | 0.214 | 0.168 | 0.208
15 | CSCC[C@H](NC(=O)[C@@H](NC(=O)[C@H](C)N)[C@@H](C)O)C(=O)N[C@@H](CS)C(=O)N[C@@H](CCCCN)C(=O)N[C@@H](Cc1c[nH]cn1)C(=O)N[C@@H](Cc1ccc(O)cc1)C(=O)N[C@@H](CCCNC(=N)N)C(=O)N[C@@H](CCCNC(=N)N)C(=O)O [Peptide 88.0343] | 0.221 | 0.019 | 0.023 | 0.074 | 0.055
16 | KLCLRFLSK [Peptide 1571.20] | 0.018 | 0.279 | 0.271 | > 20 | > 20
17 | LLYGAANTGK [Peptide 1587.12] | 0.0033 | 0.016 | 6.72 | > 20 | 0.076
18 | LLFYSKVRK [Peptide 78.0298] | 0.0039 | 0.013 | 0.395 | 0.799 | 0.023
19 | KFYSKISEYR [Peptide 78.0081] | 1.68 | 18 | 0.048 | 0.079 | 0.264
20 | SFMELVRPFK [Peptide 88.0163] | 2.02 | 0.199 | 0.0077 | 0.0033 | 1.39
21 | SVRKLTEDR [Peptide 9017.0106] | 16.8 | 7.64 | 0.048 | 0.646 | 0.226

Row | Molecule | IC50 (HLA-A3.2 (A*0301)) [µM] | IC50 (HLA-A11 (A*1101)) [µM] | IC50 (A31 (A*3101)) [µM] | IC50 (A*3301) [µM] | IC50 (A*6801) [µM]
22 | ETQRQQFLK [Peptide 1589.32] | 1.01 | 0.028 | 3.92 | 0.08 | 0.03
23 | KSFLKGTPK [Peptide 88.0344] | 0.016 | 0.023 | 0.022 | 16.1 | 1.91
24 | LFYSKVRKYK [Peptide 88.0098] | 0.68 | 2.58 | 0.018 | 0.03 | 1.98
25 | YQNFQNADK [Peptide 99.0371] | 2.71 | 0.177 | 44.7 | > 18.4 | 19.8
26 | HLFGYSYYK [Peptide 76.0191] | 0.011 | 0.0027 | 1.8 | 3.47 | 0.014
27 | SVYGETLEK [Peptide 78.0291] | 0.347 | 0.166 | > 20 | > 20 | 2.62
28 | HSRIGILRQR [Peptide 9017.0242] | 0.637 | 6.91 | 0.0098 | 0.418 | 0.253
29 | STAAALYWYR [Peptide 1587.32] | 0.089 | 0.004 | 0.0024 | 0.028 | 0.0041
30 | SVYGDTLEK [Peptide 78.0277] | 0.072 | 0.014 | > 20 | > 20 | 0.017
31 | STCMGGMNR [Peptide 1556.61] | 0.281 | 1.1 | 0.157 | 17.9 | 1.63
32 | ALTALIKPKK [Peptide 9017.0229] | 0.529 | 0.43 | 0.901 | > 20 | 2.1
33 | KLFLQGTPK [Peptide 88.0381] | 0.015 | 0.012 | 0.051 | > 20 | 0.703
34 | RQMSMGQWIK [Peptide 1587.35] | 0.053 | 0.006 | 0.048 | > 20 | 2.23
35 | NVAPIVHLK [Peptide 1589.21] | 6.38 | 0.394 | > 20 | > 20 | 0.0024
36 | EVLMWKFDSR [Peptide 9017.0192] | > 20 | 7.63 | 0.436 | 0.062 | 0.0028
37 | KTASVGTPK [Peptide 1589.27] | 0.011 | 0.013 | 0.044 | > 20 | 0.0085
38 | VVYRDSIPH [Peptide 78.0275] | 0.401 | 0.178 | > 20 | > 20 | > 20
39 | GVSIEWRKRR [Peptide 9017.0221] | > 20 | 6.32 | 0.226 | 1.68 | 8.81
40 | DLPSQIEHWK [Peptide 88.0212] | > 20 | > 20 | > 20 | > 20 | 0.025
41 | VVLLLVRYK [Peptide 1587.05] | 0.013 | 0.021 | 0.0012 | 0.021 | 0.54
